Literature values in US20050202101A1, “Method and composition for preventing or reducing the symptoms of insulin resistance syndrome” (Interhealth Nutraceuticals Incorporated, priority 2001, published 2005).

System: obese women
Conditions: with exercise

chromium picolinate
body weight change: significant weight gain
